{
  "source": "patent USRE37781E1",
  "about": "“Substituted cyclic carbonyls and derivatives thereof useful as retroviral protease inhibitors” (DuPont Pharmaceuticals Company, priority 1991, dated 2002)",
  "key": {"Solubility studies": {"assay": "Solubility studies", "format": "physicochemical", "method": "For compounds of the present invention having reduceded water solubility it may be advantageous to prepare prodrugs to enhance the solubility and bioavailability of these compounds. […] Solubility studies were performed by mixing an excess of solid compound in water or aqueous medium for at least 4 hours. Solubility was assessed either visually, if a weighed amount clearly dissolved in a measured volume of solvent (method A), or by HPLC assay of filtrates of saturated solutions (method B)."}, "[1]": {"assay": "Hydrolysis of prodrugs to 5U in biological fluids in vitro", "format": "in vitro ADME", "conditions": "exposed to plasma or intestinal enzymes in vitro, 37° C.", "method": "Compounds 29A-29E are hydrolyzed to parent compound 5U in biological fluids in vitro. This was shown as follows. Plasma was collected from rats, dogs, or human volunteer, and was used within 24 hours. […] After various times of incubation at 37° C., the hydrolysis reaction was quenched with the addition of an organic solvent. The organic solvent was used for extraction of 5U, and concentrations of 5U in the plasma aliquots were determined using HPLC after extraction. Concentrations of 5U were thus measured vs. time of incubation of the prodrug in plasma at 37° C. Similar studies were performed using a homogenate of rat intestinal tissue (10% w/v) as the hydrolysis medium. Results for in vitro hydrolysis of prodrug 29B in dog plasma and rat intestinal homogenate (10% w/v) are given in Table B. Results for in vitro hydrolysis of prodrug 29C in rat, dog and human plasma are given in Table C. […] Other salt forms of these compounds, such as prodrugs 29A and 29D, will be similar to their free acid or free base forms."}, "[2]": {"target": "single-chain tethered dimer of HIV protease (Human immunodeficiency virus 1, UniProt P04585)", "assay": "biochemical", "format": "biochemical"}, "HIV-1 (RF) in MT-2 cells": {"system": "HIV-1 (RF) in MT-2 cells", "assay": "microbe, parasite or virus in culture", "format": "cell-based", "conditions": "Human immunodeficiency virus 1, MT2, HIV RNA assay, HIV-1 infected MT-2 cells; class symbols; read-out: IC90", "method_in_brief": "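HIV-1 laboratory strains (RF, MN, IIIB) grown in H9 cells in RPMI 1640 with 5% FCS; infections in MT-2 cells. Viral RNA quantified by hybridization with biotinylated gag/pol capture probes on streptavidin plates and alkaline phosphatase-conjugated reporter probes; BH10 gag-pol in vitro transcripts serve as RNA standards.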"}, "[3]": {"assay": "Oral bioavailability studies in fasted beagle dogs", "format": "in vivo", "conditions": "for bioavailability: beagle, dog, plasma, po, excipient glycol, read-out: % Oral Bioavailability of 5U (Mean ± SE)", "method": "Improved water solubility can result in increasing the extent of oral bioavailability. Oral bioavailability studies were performed in fasted beagle dogs. Compounds were dosed orally using a solution vehicle or the solid drug powder filled into hard gelatin capsules. Periodic blood samples were taken from each dog and plasma was separated. Plasma drug concentrations were determined using extraction and HPLC analysis. Generally, after the administration of 5U or its prodrugs 29A-E, the plasma concentrations of 5U were determined, rather than unchanged prodrug concentrations. […] Oral bioavailability is expressed as the percentage of the oral dose absorbed. […] Therefore, in order to attain improved oral bioavailability, 5U was administered using a solution with polyethylene glycol 400 or propylene glycol as the vehicle. […] Improved oral bioavailability was attained when the water soluble prodrugs were administered in the solid form, with no added excipients or solvents. […] The advantage of the water soluble prodrugs is especially clear at high doses. […] Samples were then extracted again and assayed for 5U concentration. […] Thus, plasma levels of both intact prodrug and hydrolysis product can be attained using these water soluble prodrugs."}, "HIV-1 protease": {"system": "HIV-1 protease", "assay": "HIV-1 Protease Transgenic Mouse Model (cataract phenotype)", "conditions": "Tg 72 mouse", "quoted_text": "The HIV protease inhibitory activity of the presently claimed compounds was measured in this animal system as a delay or prevention of the onset of cataract appearance in the test animals.\nPlasmid Construction: The mammalian expression vector pMSG (Pharmacia) was modified by replacing the MMTV LTR promoter with the 412-bp Bgl II-BamHI mouse alpha A-cryatallin promoter fragment (Chepelinsky et al. Proc. Natl. Acad. Sci. USA, 1985, 82, 2334-2338). The SV40 early splice and polyadenylation signals were retained and this plasmid was renamed pCSV 19. A single chain, tethered dimeric form of the active HIV-1 protease gene (BAA; Cheng et al., Proc. Natl. Acad. Sci. USA, 1990, 87, 9660-9664 and Cheng et al., Gene, 1990, 87, 243-248) was modified for mammalian cell expression by replacing nucleotides 7 to 90 with [sequence]. The gene was cut with EcoRI and Hind III and after blunt-end repair cloned into the Sma I site of the pCSV 19, thus producing PCSV 19-BAA.\nConstruction of Transgenic Mice: 2.5 kb Hind III fragments from the pCSV 19-BAA and pCSV 19-BA*A* plasmids were isolated (modified from Sambrook at al., Molecular Cloning, A Laboratory Manual, 2nd Ed., 1989, Cold Spring Harbor Laboratory) and used for the construction of transgenic mice using the pronuclei injection method (Hogan et al., Manipulating the Mouse Embryo. A Laboratory Manual, 1986, Cold Spring Harbor Laboratory). Mice were screened for the HIV-1 protease transgene by either Southern blot or Polymerase Chain Reaction (PCR) methods. Mice of the FVB/N strain (Taketo et al., Proc. Natl. Acad Sci. USA, 1991, 88, 2065-2069) were used for the construction and breeding of these transgenic mice, and were originally obtained from Dr. Carl Hansen (NIH) and bred in our facility. Subsequently, the mice were purchased from Charles River Laboratory (Portage, Mich.).\nIdentification of Transgenic Mice: Southern blot analysis (Sambrook et al. vide supra) was performed on DNA purified from tail biopsies (Hogan et al. vide supra) using the 2.5 kb Hind III fragment from pCSV 19-BAA as the probe (^32P labeled). DNA for PCR was prepared from tail biopsies by overnight digestion with 0.5 mg of Proteinase K (Boehringer-Manheim GmbH) in 100 μl of water and 0.025% SDS. PCR primers specific for the mouse c-fos gene and the transgene's SV40 segment were used as an internal control in some samples. Each PCR reaction contained 1-2 μl of tail digest, 60 μg of each primer, 200 μM of Perkin Elmer Cetus dATP, dCTP, dGTP,TTP (buffered at pH 8.8) and up to 5 units of Perkin Elmer Cetus Ampli/Taq polymerase. The reactions were run on a Perkin Elmer DNA Thermal Cycler as follows: 1 min at 94° C., 3 min at 67° C. (2 sec extension/cycle) for 35 cycles. The PCR products were analyzed by gel electrophoresis (1% agarose,0.5 μg/ml of ethidium bromide), and tail samples with a 625 PCR fragment (SV40 specific) were considered positive for the transgene. Mice bearing the active HIV-1 protease transgene were also identified by their cataract phenotype.\nDosing Regimen: Compounds to be tested were pulverized by manual grinding with mortar and pestle. Just prior to dosing of mice, the compound was suspended in 0.25% methylcellulose/Tween 80 solution, homogenized in a manual Dounce homogenizer and sonicated for 10 min in a sonicating water bath. The volume of suspension was adjusted so that the amount of compound required for dosing one mouse was 0.1-0.2 mL. In order to maintain the required mg/kg dose, an average mouse weight for each group was determined twice a week and the amount of compound adjusted accordingly. Intraperitoneal (ip) and oral (po) dosing was performed using 25 G ⅝ in. injection and 20 G 1½ in. feeding needles, respectively. The dosing was performed twice a day (bid) and the doses were administered 6-8 h apart."}},
  "note": "Read-outs that look alike come from different tables or passages of the source.",
  "data": [
    {"molecule": "CN(C)CC(=O)OCc1ccc(CN2C(=O)N(Cc3ccc(COC(=O)CN(C)C)cc3)[C@H](Cc3ccccc3)[C@H](O)[C@@H](O)[C@H]2Cc2ccccc2)cc1", "note": "[Example 29C]", "values": [
      {"measurement": "Solubility", "setting": "Solubility studies; 0.1M citric acid, method A (visually)", "value": ">20000", "unit": "µg/mL"},
      {"measurement": "conversion of prodrug to parent 5U", "setting": "[1]", "value": "readily convert to parent 5U"}
    ]},
    {"molecule": "CN(C)CC(=O)OCc1ccc(CN2C(=O)N(Cc3ccc(CO)cc3)[C@H](Cc3ccccc3)[C@H](O)[C@@H](O)[C@H]2Cc2ccccc2)cc1.Cl", "note": "[Example 29D]", "values": [
      {"measurement": "Solubility", "setting": "Solubility studies; water, method A (visually)", "value": ">200000", "unit": "µg/mL"}
    ]},
    {"molecule": "O=C1N(Cc2ccc(COP(=O)(O)O)cc2)[C@H](Cc2ccccc2)[C@H](O)[C@@H](O)[C@@H](Cc2ccccc2)N1Cc1ccc(COP(=O)(O)O)cc1", "note": "[Example 29A]", "values": [
      {"measurement": "Solubility", "setting": "Solubility studies", "value": 2250, "unit": "µg/mL"}
    ]},
    {"molecule": "O=C1N(Cc2ccc(CO)cc2)C(Cc2ccccc2)C(O)C(O)C(Cc2ccccc2)N1Cc1ccc(CO)cc1", "note": "(stereo not drawn) [Example 5U]", "values": [
      {"measurement": "Ki", "setting": "[2]", "value": "< 10", "unit": "nM"},
      {"measurement": "IC90", "setting": "HIV-1 (RF) in MT-2 cells", "value": "< 10", "unit": "µg/mL"},
      {"measurement": "Solubility", "setting": "Solubility studies; thermodynamic from solid, water, method B (HPLC assay of filtrates of saturated solutions), read-out: Solubility", "value": 10, "unit": "µg/mL"},
      {"measurement": "oral bioavailability", "setting": "[3]; administered as the solid powder", "value": "low oral bioavailability"},
      {"measurement": "bioavailability", "setting": "[3]; dose 40 mg/kg 5U eq.", "value": "5 ± 2", "unit": "%"},
      {"measurement": "bioavailability", "setting": "[3]; dose 10-15 mg/kg 5U eq.", "value": "50 ± 20", "unit": "%"},
      {"measurement": "oral bioavailability", "setting": "[3]; similar (high) dose in a non-aqueous vehicle", "value": "relatively poor oral bioavailability"},
      {"measurement": "Delay in Cataract (relative to control)", "setting": "HIV-1 protease; 100 mg/kg bid ip", "value": 5, "unit": "days"},
      {"measurement": "Delay in Cataract (relative to control)", "setting": "HIV-1 protease; 400 mg/kg bid ip days 15-42", "value": 45, "unit": "days"}
    ]},
    {"molecule": "CN(C)CC(=O)OCc1ccc(CN2C(=O)N(Cc3ccc(COC(=O)CN(C)C)cc3)[C@H](Cc3ccccc3)[C@H](O)[C@@H](O)[C@H]2Cc2ccccc2)cc1.Cl", "note": "[Example 29E]", "values": [
      {"measurement": "conversion of prodrug to parent 5U", "setting": "[1]", "value": "readily convert to parent 5U"},
      {"measurement": "AUC of intact esters (total of mono and bis ester) relative to that of 5U", "setting": "[3]; oral, plasma treated with NaOH", "value": "approximately 2 fold"}
    ]}
  ]
}
